Experimental data taken from patent US20210246122A1, “Triazine Compounds and Uses Thereof” (Aduro Biotech, Inc., priority 2018, published 2021).

What was measured:
cGAS/STING pathway = assay: THP1 cell-based cGAS/STING pathway activity assay (luciferase reporter linked to IRF-3 activation); details: Homo sapiens, THP-1; THP1 cells, IRF-3 linked luciferase reporter
Description: A cellular assay can be used to assess the compounds of the invention for their ability to inhibit the cGAS/STING pathway. Cells that express a luciferase-based reporter that is linked to IRF-3 activation are used to determine response as a function of compound concentration. Such an assay is described in Vincent et al., Nature Communications 2017, 8(1):750, doi: 10.1038/s41467-017-00833-9. Compounds of the invention were assessed using similar assay methods in a THP1 cell assay to generate IC50 values as provided in the following Table 8. In this table, activity level “A” indicates an IC50 value less than 20 μM, “B” indicates an IC50 value between 20 and 100 μM, and “C” indicates an IC50 value above the upper limit of the assay (100 μM), or where an IC50 value could not be generated from the data.

[1] = target: T1, Human cGAS amino acids 155-522 (Homo sapiens, UniProt Q8N884); assay: cGAS activity assay (DNA-activated cGAS, remaining ATP measured by Kinase-Glo Max luciferase assay); assay type: biochemical; details: 300 nM purified cGAS, 1 μM dsDNA, 250 μM ATP, 100 μM GTP, 37° C. for 1.25 hours
T1 construct: hexahistidine tag (N, cleaved yes); made in house; host or cells: E. coli BL21 DE3 Rosetta 2
Outline: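 Recombinant human cGAS 155-522 (300 nM) activated by 1 μM annealed dsDNA, run at 37° C for 1.25 h in Tris pH 9 buffer with 250 μM ATP and 100 μM GTP, 5% final DMSO. Compounds from 1 μM in 3- or 4-fold dilutions; remaining ATP read by luciferase luminescence, normalized to no-compound wells.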

T1 sequence (Q8N884 157-522): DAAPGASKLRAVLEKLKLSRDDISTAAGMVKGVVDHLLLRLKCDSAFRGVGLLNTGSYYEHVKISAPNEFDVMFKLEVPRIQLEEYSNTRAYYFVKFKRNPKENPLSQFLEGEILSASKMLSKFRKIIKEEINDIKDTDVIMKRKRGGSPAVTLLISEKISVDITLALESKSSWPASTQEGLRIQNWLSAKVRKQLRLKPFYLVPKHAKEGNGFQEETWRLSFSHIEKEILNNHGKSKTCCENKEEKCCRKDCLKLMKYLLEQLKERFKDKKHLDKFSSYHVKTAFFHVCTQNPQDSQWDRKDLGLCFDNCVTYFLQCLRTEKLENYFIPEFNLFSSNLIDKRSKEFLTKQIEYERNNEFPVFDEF

`COC(=O)[C@H](Cc1ccc(C#N)cc1)Nc1nc(NCc2nc3cc(Cl)ccc3[nH]2)nc(Nc2cccc(CN3CCN(C(=O)c4nccnc4O)CC3)c2)n1` [TA1059, methyl (S)-2-((4-(((5-chloro-1H-benzo[d]imidazol-2-yl)methyl)amino)-6-((3-((4-(3-hydroxypyrazine-2-carbonyl)piperazin-1-yl)methyl)phenyl)amino)-1,3,5-triazin-2-yl)amino)-3-(4-cyanophenyl)propanoate] was tested, and the IC50 (cGAS/STING pathway) was over 100 µM and the IC50 [1] was under 20 µM.

With `COCCOCCNC(=O)[C@H](Cc1ccc(C#N)cc1)Nc1nc(NCc2nc3cc(F)ccc3[nH]2)nc(Nc2cccc(CN3CCN(C(=O)c4nccnc4O)CC3)c2)n1` [TA1025, (S)-3-(4-cyanophenyl)-2-((4-(((5-fluoro-1H-benzo[d]imidazol-2-yl)methyl)amino)-6-((3-((4-(3-hydroxypyrazine-2-carbonyl)piperazin-1-yl)methyl)phenyl)amino)-1,3,5-triazin-2-yl)amino)-N-(2-(2-methoxyethoxy)ethyl)propanamide] the IC50 (cGAS/STING pathway) was over 100 µM and the IC50 [1] was under 20 µM.

`N#Cc1ccc(C[C@H](Nc2nc(NCc3nc4cc(F)ccc4[nH]3)nc(Nc3cccc(CN4CCN(C(=O)c5nccnc5O)CC4)c3)n2)C(=O)O)cc1` [TA1071, (S)-3-(4-cyanophenyl)-2-((4-(((5-fluoro-1H-benzo[d]imidazol-2-yl)methyl)amino)-6-((3-((4-(3-hydroxypyrazine-2-carbonyl)piperazin-1-yl)methyl)phenyl)amino)-1,3,5-triazin-2-yl)amino)propanoic acid] showed an IC50 (cGAS/STING pathway) of over 100 µM and an IC50 [1] of under 20 µM.

`CN(C)C(=O)[C@H](Cc1ccc(C#N)cc1)Nc1nc(NCc2nc3cc(F)ccc3[nH]2)nc(Nc2cccc(CN3CCN(C(=O)c4nccnc4O)CC3)c2)n1` [TA1021, (S)-3-(4-cyanophenyl)-2-((4-(((5-fluoro-1H-benzo[d]imidazol-2-yl)methyl)amino)-6-((3-((4-(3-hydroxypyrazine-2-carbonyl)piperazin-1-yl)methyl)phenyl)amino)-1,3,5-triazin-2-yl)amino)-N,N-dimethylpropanamide] was tested, and the IC50 (cGAS/STING pathway) was over 100 µM and the IC50 [1] was under 20 µM.
